Legend:
prostatic epithelia = test: Cancer stem cell markers and sphere-forming units; assay type: cell-based; conditions: antagonizing endoglin
CW22Rv1 = test: Clonogenic survival assay with radiation; assay type: cell-based, human; conditions: 1 μg/ml TRC105 vs IgG, 0 to 6 Gy; p<0.001
Protocol: (§1) FIG. 18A) Cell surface CD105 expression was measured in PC3, C42b, and 22Rv1 72 hours after 4 Gy irradiation treatment by FACS analysis and compared to cells not irradiated (control). FIG. 18B) Cell surface CD105 expression was measured in cell lines following a dose range of irradiation (0, 2, 4, or 6 Gy). FIG. 18C) The durability of cell surface CD105 expression in 22Rv1 was determined 0, 0.5, 4, 8, 24, 48, 72, 120, and 168 hours following 4 Gy irradiation. CD105 cell surface expression fold change was normalized to levels expressed prior to irradiation. FIG. 18D) Western blot for phosphorylated-Smad1/5 was measured in CW22Rv1 cells in the presence or absence of serum starvation and treatment with 50 ng/ml BMP4 or 1 μg/ml TRC105. β-actin expression served as the loading control. FIG. 18E) Annexin-V expression was measured in 22Rv1 cells by FACS analysis 5 days following 4 Gy irradiation in the presence and absence of TRC105. FIG. 18F) Clonogenic assay was measured 10 days following irradiation of CW22Rv1 and C42b cells in a dose range of 0 to 6 Gy in the presence of 1 μg/ml IgG or TRC105. Data are reported as a mean+/−S.D. (**p<0.01, ***p<0.001).

C4-2B = test: Clonogenic survival assay with radiation; assay type: cell-based, human; conditions: 1 μg/ml TRC105 vs IgG, 0 to 6 Gy; p<0.001
Protocol: as §1

22Rv1 cells = test: Annexin-V apoptosis by FACS after irradiation; assay type: cell-based, human; conditions: TRC105 with 4 Gy radiation vs radiation alone, 5 days
Protocol: as §1

Q: “TRC105: partially humanized monoclonal antibody that blocks BMP signaling; human-specific CD105 (endoglin) neutralizing antibody from Tracon Pharmaceuticals” was tested. Which “cancer stem cell markers (CD44, ALDH, Oct4, Sox) and sphere-forming units” value (prostatic epithelia) did it give?
A: Its value is “down regulated”.

Q: And the “radiation sensitivity, clonogenic survival” value (CW22Rv1)?
A: The value was “sensitized prostate cancer cells to radiation”.

Q: And the “radiation sensitivity, clonogenic survival” value (C4-2B)?
A: Its value is “sensitized prostate cancer cells to radiation”.

Q: And the “apoptosis measured by Annexin-V” value (22Rv1 cells)?
A: The value was “significantly increased apoptosis”.

From patent publication US20200239587A1, “SENSITIZATION OF TUMORS TO THERAPIES THROUGH ENDOGLIN ANTAGONISM” (Cedars-Sinai Medical Center, priority 2016, published 2020)
